Experimental data: patent publication US10202390B2, “Heteroaryl substituted aminopyridine compounds” (BRISTOL-MYERS SQUIBB COMPANY, priority 2015, dated 2019)

Columns and labels:
[1] = biological target: IRAK4 (Homo sapiens (Human), UniProt Q9NWZ3); experiment: IRAK4 Inhibition Assay; assay type: biochemical; conditions: ATP 500 μM; IRAK4 0.6 nM; 60 min room temperature
Protocol: The assays were performed in U-bottom 384-well plates. The final assay volume was 30 μL prepared from 15 μL additions of enzyme and substrates (fluoresceinated peptide and ATP) and test compounds in assay buffer (20 mM HEPES pH 7.2, 10 mM MgCl2, 0.015% Brij 35 and 4 mM DTT). The reaction was initiated by the combination of IRAK4 with substrates and test compounds. The reaction mixture was incubated at room temperature for 60 min. and terminated by adding 45 μL of 35 mM EDTA to each sample. The reaction mixture was analyzed on the Caliper LABCHIP® 3000 (Caliper, Hopkinton, Mass.) by electrophoretic separation of the fluorescent substrate and phosphorylated product. Inhibition data were calculated by comparison to no enzyme control reactions for 100% inhibition and vehicle-only reactions for 0% inhibition. The final concentrations of reagents in the assays are ATP, 500 μM; FL-IPTSPITTTYFFFKKK peptide 1.5 μM; IRAK4, 0.6 nM; and DMSO, 1.6%.

[2] = test system: Human whole blood; experiment: IRAK4 Whole Blood Assay (TLR2 agonist lipoteichoic acid induced IL-6); assay type: cell-based; conditions: 10 μg/mL lipoteichoic acid (TLR2 agonist), 5 hours, IL-6 levels
Protocol: Human whole blood containing the anti-coagulant ACD-A was plated in 384-well plate (25 μL/well) and incubated with compounds for 60 minutes at 37° C. in a 5% CO2 incubator. The blood was stimulated with a TLR2 agonist, 10 μg/mL final concentration of lipoteichoic acid (Invivogen, San Diego, Calif.) in 25 μL RPMI (Gibco) for 5 hours in a 5% CO2 incubator. At the end of the incubation, plates were centrifuged at 2300 rpm for 5 minutes. Supernatants were harvested and analyzed for IL-6 levels by Flow Cytometry beads assay (BD Biosciences, San Jose, Calif.).

[3] = Caco-2 Permeability Assay; assay type: in vitro ADME; conditions: human, test compound 3 μM, 2 hours at 37° C., direction not given
Protocol: Caco-2 Permeability Assay Protocol
Thirteen to 27 days prior to assay, Caco-2 cells were seeded onto collagen-coated polycarbonate filter membranes in 24-well transwell plates at a density of 1.45×10^5 cells/cm^2, approximately 4.8×10^4 cells per well. The cells were grown in a culture medium consisting of DMEM supplemented with 10% fetal bovine serum, 10 mM HEPES, 1% nonessential amino acids, 2 mM L-glutamine, 100 U/mL penicillin-G, and 100 μg/mL streptomycin. The culture medium was replaced every 3 days and the cells were maintained at 37° C. in a 95% relative humidity and 5% CO2 atmosphere. The cells were evaluated for tight junction formation just prior to assay. The test compound was solubilized to 10 mM in 100% DMSO and diluted to 3 μM in assay buffer. Permeability studies were initiated by adding 200 μL assay buffer plus/minus compound to the apical transwell compartment and 600 μL assay buffer plus/minus compound to the basolateral compartment of the 24-well transwell low-binding cluster plate. For apical-to-basolateral (A to B) permeability (absorptive direction), buffer containing compound was placed in the apical compartment (donorwells), while buffer alone was placed in the corresponding basolateral compartments (receiverwells). For basolateral-to-apical (B to A) permeability (secretive direction), buffer containing compound was placed in the basolateral compartment (donor wells), while buffer alone was placed in the corresponding apical compartments (receiver wells). Transwells were then incubated for 2 hours at 37° C. in a 95% relative humidity and 5% CO2 atmosphere with gentle agitation. Following incubation, 100 μL was removed from each apical and basolateral compartment and transferred to 96-well low binding plates that had been previously loaded with 100 μL/well of acetonitrile containing 250 nM propranolol, 250 nM diclofenac, and 500 nM tolbutamide as internal standards. The samples were subsequently analyzed by LC-MS/MS to determine concentrations of compound.

Sequence of IRAK4 (Q9NWZ3 whole entry): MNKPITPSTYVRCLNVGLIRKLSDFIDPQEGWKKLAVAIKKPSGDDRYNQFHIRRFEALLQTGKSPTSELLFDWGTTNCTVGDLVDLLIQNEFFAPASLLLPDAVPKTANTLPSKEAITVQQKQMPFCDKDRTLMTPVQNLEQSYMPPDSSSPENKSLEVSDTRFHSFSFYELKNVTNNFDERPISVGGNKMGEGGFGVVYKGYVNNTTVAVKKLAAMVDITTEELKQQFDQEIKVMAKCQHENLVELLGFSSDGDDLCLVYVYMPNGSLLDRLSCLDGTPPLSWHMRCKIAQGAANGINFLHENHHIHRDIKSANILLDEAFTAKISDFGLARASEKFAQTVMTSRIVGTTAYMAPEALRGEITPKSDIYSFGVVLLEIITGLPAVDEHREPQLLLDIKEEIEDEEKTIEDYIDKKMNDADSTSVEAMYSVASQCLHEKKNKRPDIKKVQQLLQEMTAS

| IC50 [1] | EC50 [2] | Papp at 2 h, 3 μM [3] | Structure (SMILES) |
| --- | --- | --- | --- |
| 2 nM | 510 nM | – | CC(C)(O)CCc1cc(-c2cnc(-c3cnn4cc(C#N)cnc34)cc2NC2CCOCC2)n[nH]1 [Example 29, 3-(5-(5-(3-hydroxy-3-methylbutyl)-1H-pyrazol-3-yl)-4-((tetrahydro-2H-pyran-4-yl)amino)pyridin-2-yl)pyrazolo[1,5-a]pyrimidine-6-carbonitrile] |
| 5 nM | 590 nM | – | CC(C)Nc1cc(-c2cnc3cc(C#N)cnn23)ncc1-c1cc(C2CCOCC2)[nH]n1 [Example 28, 3-(4-(isopropylamino)-5-(5-(tetrahydro-2H-pyran-4-yl)-1H-pyrazol-3-yl)pyridin-2-yl)imidazo[1,2-b]pyridazine-7-carbonitrile] |
| – | 160 nM | – | CC(C)(O)CCc1cn(-c2cnc(-c3cnn4cc(C#N)cnc34)cc2NC2COC2)nn1 [Example 26, 3-(5-(4-(3-hydroxy-3-methylbutyl)-1H-1,2,3-triazol-1-yl)-4-(oxetan-3-ylamino)pyridin-2-yl)pyrazolo[1,5-a]pyrimidine-6-carbonitrile] |
| 2 nM | – | – | CC(C)Nc1cc(-c2cnc3cc(C#N)cnn23)ncc1-c1cn(C2CCOCC2)nn1 [Example 16, 3-(4-(isopropylamino)-5-(1-(tetrahydro-2H-pyran-4-yl)-1H-1,2,3-triazol-4-yl)pyridin-2-yl)imidazo[1,2-b]pyridazine-7-carbonitrile] |
| 3 nM | 2320 nM | – | CCCn1cc(-c2cnc(-c3cnc4cc(Cl)cnn34)cc2NC2CC2)nn1 [Example 19, 2-(7-chloroimidazo[1,2-b]pyridazin-3-yl)-N-cyclopropyl-5-(1-propyl-1H-1,2,3-triazol-4-yl)pyridin-4-amine] |
| 14 nM | 780 nM | – | CC(C)(O)CCc1cn(-c2cnc(-c3cnn4cc(C#N)cnc34)cc2NC2CC(F)(F)C2)nn1 [Example 24, 3-(4-((3,3-difluorocyclobutyl)amino)-5-(4-(3-hydroxy-3-methylbutyl)-1H-1,2,3-triazol-1-yl)pyridin-2-yl)pyrazolo[1,5-a]pyrimidine-6-carbonitrile] |
| 9 nM | 820 nM | – | CC(C)(O)CCc1cn(-c2cnc(-c3cnn4cc(Cl)cnc34)cc2NC2COC2)nn1 [Example 14, 4-(1-(6-(6-chloropyrazolo[1,5-a]pyrimidin-3-yl)-4-(oxetan-3-ylamino)pyridin-3-yl)-1H-1,2,3-triazol-4-yl)-2-methylbutan-2-ol] |
| 14 nM | 2870 nM | – | COC(=O)N1CCC(n2cc(-c3cnc(-c4cnc5cc(Cl)cnn45)cc3NC3CC3)nn2)[C@](C)(O)C1 (stereo partly drawn) [Example 21, (3R)-methyl 4-(4-(6-(7-chloroimidazo[1,2-b]pyridazin-3-yl)-4-(cyclopropylamino)pyridin-3-yl)-1H-1,2,3-triazol-1-yl)-3-hydroxy-3-methylpiperidine-1-carboxylate] |
| 2 nM | – | – | CC(=O)N1CC(n2cc(-c3cnc(-c4cnc5cc(C#N)cnn45)cc3NC(C)C)nn2)C1 [Example 17, 3-(5-(1-(1-acetylazetidin-3-yl)-1H-1,2,3-triazol-4-yl)-4-(isopropylamino)pyridin-2-yl)imidazo[1,2-b]pyridazine-7-carbonitrile] |
| 12 nM | – | – | CCCn1cc(-c2cnc(-c3cnc4cc(Cl)cnn34)cc2NC(C)C)nn1 [Example 20, 2-(7-chloroimidazo[1,2-b]pyridazin-3-yl)-N-isopropyl-5-(1-propyl-1H-1,2,3-triazol-4-yl)pyridin-4-amine] |
| 9 nM | 990 nM | – | CC(C)(O)CCc1cn(-c2cnc(-c3cnn4cc(Cl)cnc34)cc2NC2CCOCC2)nn1 [Example 23, 4-(1-(6-(6-chloropyrazolo[1,5-a]pyrimidin-3-yl)-4-((tetrahydro-2H-pyran-4-yl)amino)pyridin-3-yl)-1H-1,2,3-triazol-4-yl)-2-methylbutan-2-ol] |

More lines, now with the values behind:

| Structure (SMILES) | IC50 [1] | EC50 [2] | Papp at 2 h, 3 μM [3] |
| --- | --- | --- | --- |
| CCCc1cn(-c2cnc(-c3cnn4cc(Cl)cnc34)cc2NC(C)C)nn1 [Example 11, 2-(6-chloropyrazolo[1,5-a]pyrimidin-3-yl)-N-isopropyl-5-(4-propyl-1H-1,2,3-triazol-1-yl)pyridin-4-amine] | 8 nM | – | 17.9 ×10⁻⁶ cm/s |
| CC(C)Nc1cc(-c2cnn3cc(C#N)cnc23)ncc1-n1cc(C(C)(C)O)cn1 [Example 1, 3-(5-(4-(2-hydroxypropan-2-yl)-1H-pyrazol-1-yl)-4-(isopropylamino)pyridin-2-yl) pyrazolo[1,5-a]pyrimidine-6-carbonitrile] | 578 nM | – | – |
| CC(C)Nc1cc(-c2cnc3cc(C#N)cnn23)ncc1-c1cnn(CC(C)(C)O)c1 [Example 5, 3-(5-(1-(2-hydroxy-2-methylpropyl)-1H-pyrazol-4-yl)-4-(isopropylamino)pyridin-2-yl)imidazo[1,2-b]pyridazine-7-carbonitrile] | 174 nM | – | – |
| CCCn1cc(-c2cnc(-c3cnc4cc(Cl)cnn34)cc2Nc2cnn(CC(F)F)c2)cn1 [Example 9, 2-(7-chloroimidazo[1,2-b]pyridazin-3-yl)-N-(1-(2,2-difluoroethyl)-1H-pyrazol-4-yl)-5-(1-propyl-1H-pyrazol-4-yl)pyridin-4-amine] | 29 nM | – | – |
| CC(C)Nc1cc(-c2cnc3cc(C#N)cnn23)ncc1-c1cnn(CC(F)(F)F)c1 [Example 8, 3-(4-(isopropylamino)-5-(1-(2,2,2-trifluoroethyl)-1H-pyrazol-4-yl)pyridin-2-yl)imidazo[1,2-b]pyridazine-7-carbonitrile] | 43 nM | – | – |
| CC(C)Nc1cc(-c2cnn3cc(Cl)cnc23)ncc1-n1cc(CCC(C)(C)O)nn1 [Example 13, 4-(1-(6-(6-chloropyrazolo[1,5-a]pyrimidin-3-yl)-4-(isopropylamino)pyridin-3-yl)-H-1,2,3-triazol-4-yl)-2-methylbutan-2-ol] | 3 nM | 950 nM | – |
| CC(C)Nc1cc(-c2cnc3cc(Cl)cnn23)ncc1-c1cnn(CC(C)(C)O)c1 [Example 4, 1-(4-(6-(7-chloroimidazo[1,2-b]pyridazin-3-yl)-4-(isopropylamino)pyridin-3-yl)-1H-pyrazol-1-yl)-2-methylpropan-2-ol] | 396 nM | – | – |
| CCCc1cn(-c2cnc(-c3cnn4cc(C#N)cnc34)cc2NC(C)C)nn1 [Example 12, 3-(4-(isopropylamino)-5-(4-propyl-1H-1,2,3-triazol-1-yl)pyridin-2-yl)pyrazolo[1,5-a]pyrimidine-6-carbonitrile] | 9 nM | – | 34.7 ×10⁻⁶ cm/s |
| CC(C)Nc1cc(-c2cnc3cc(C#N)cnn23)ncc1-c1cnn(C2CCOCC2)c1 [Example 3, 3-(4-(isopropylamino)-5-(1-(tetrahydro-2H-pyran-4-yl)-1H-pyrazol-4-yl)pyridin-2-yl)imidazo[1,2-b]pyridazine-7-carbonitrile] | 14 nM | 1030 nM | – |
| CC(C)Nc1cc(-c2cnc3cc(Cl)cnn23)ncc1-c1cnn(CC(F)(F)F)c1 [Example 7, 2-(7-chloroimidazo[1,2-b]pyridazin-3-yl)-N-isopropyl-5-(1-(2,2,2-trifluoroethyl)-1H-pyrazol-4-yl)pyridin-4-amine] | 53 nM | – | – |
| CCCn1cc(-c2cnc(-c3cnc4cc(C#N)cnn34)cc2NC(C)C)cn1 [Example 6, 3-(4-(isopropylamino)-5-(1-propyl-1H-pyrazol-4-yl)pyridin-2-yl)imidazo[1,2-b]pyridazine-7-carbonitrile] | 18 nM | 4410 nM | – |
| CCCn1cc(-c2cnc(-c3cnc4cc(C#N)cnn34)cc2Nc2cnn(CC(F)F)c2)cn1 [Example 10, 3-(4-((1-(2,2-difluoroethyl)-1H-pyrazol-4-yl)amino)-5-(1-propyl-1H-pyrazol-4-yl)pyridin-2-yl)imidazo[1,2-b]pyridazine-7-carbonitrile] | 20 nM | – | – |
